Converted amounts (≈) assume the structure as drawn.
What was measured:
[1] = test system: ANKA strain of Plasmodium berghei; experiment: Single dose ED50/ED90/ED99 determination in infected mice; format: in vivo; conditions: single dose po in SSV on day 1 post-infection, parasitemia day 3, nonlinear fitting
Protocol: In the single dose ED50/ED98/ED99 determinations, Moro SPF or NMRI mice (group of three) infected with the ANKA strain of Plasmodium berghei were treated on day one post-infection. […] The SSV consists of 0.5% w/v CMC, 0.5% v/v benzyl alcohol, 0.4% v/v Tween 80, and 0.9% w/v sodium chloride in water. Antimalarial activity was measured by percent reduction in parasitemia on day three post-infection. The ED50/ED90 values were calculated by nonlinear fitting.
The ED50, ED90, and ED99 values were calculated by non-linear fitting with statistical program and were expressed in mg/kg.

[2] = test system: Schistosoma mansoni 21-day-old schistosomules; experiment: Effect on 21-day-old schistosomules in infected mice; format: in vivo; conditions: single 200 mg/kg per os, 21-day-old schistosomules; for % reduction of schistosomule growth at day 21 after per os application of 200 mg/kg, FWR (%): female worm reduction rate; for % reduction of schistosomule growth at day 21 after per os application of 200 mg/kg, TWR (%): total worm reduction rate
Protocol: Mice were infected with 100 Schistosoma mansoni cercariae on day 21 post-treatment. Each group was treated per os with trioxolanes at a single dose of 200 mg/kg. […] All groups were killed 4 weeks after treatment and the liver and intestine were removed and separated. The liver and intestine were compressed and alive male and female worms could be seen and counted. The effect of the compounds was evaluated by mean total and female worm burden.

[3] = test system: Schistosoma mansoni adult worms (49-day-old); experiment: Effect on adult schistosomes (49-day-old) in infected mice; format: in vivo; conditions: for % reduction of adult worms growth at day 49 after per os application of 400 mg/kg, TWR (%) / Adult worms day 49, per os 400 mg/kg, DEAD WORM (%): single 400 mg/kg per os
Protocol: Mice were infected with 100 Schistosoma mansoni cercariae on day 49 post-treatment. Each group was treated per os with OZ compounds at single doses of 200, 400, and 600 mg/kg. Untreated mice served as the control. All groups were killed 4 weeks after treatment and the liver and intestine were removed and separated. The liver and intestine were compressed and alive male and female worms could be seen and counted.

[4] = test system: chloroquine-sensitive NF54 strain of P. falciparum; experiment: In vitro antimalarial semiautomated microdilution assay ([3H]-hypoxanthine incorporation), NF54 strain; format: cell-based, Plasmodium falciparum; conditions: Plasmodium falciparum, NF54, 72 h, read-out: IC50 (ng/ml) NF54, chloroquine-sensitive NF54 strain, 72 h incubation
Method in brief: (§1)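 IC50 comes from Logit regression of [3H]-hypoxanthine incorporation data. Intraerythrocytic P. falciparum taken from asynchronous stock cultures is exposed to OZ compounds in a semiautomated microdilution format.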

[5] = test system: ANKA strain of P. berghei; experiment: Single dose STI in vivo screen in infected mice; parameters: species or system Plasmodium berghei; conditions: for Survival (days) 10 mg/kg po: single 10 mg/kg po in 3% ethanol and 7% Tween 80; for Survival (days) 10 mg/kg po / Survival (days) 10 mg/kg SSV po / Survival (days) 10 mg/kg sc: untreated 6-7 days; for Activity (%) 10 mg/kg po: single 10 mg/kg po in 3% ethanol and 7% Tween 80 on day 1 post-infection; for Activity (%) 10 mg/kg po / Activity (%) 10 mg/kg SSV po / Activity (%) 10 mg/kg sc: percent reduction in parasitemia on day 3; for Survival (days) 10 mg/kg SSV po: single 10 mg/kg po in SSV; for Activity (%) 10 mg/kg SSV po: single 10 mg/kg po in standard suspending vehicle (SSV) on day 1 post-infection; for Survival (days) 10 mg/kg sc: single 10 mg/kg sc in 3% ethanol and 7% Tween 80; for Activity (%) 10 mg/kg sc: single 10 mg/kg sc in 3% ethanol and 7% Tween 80 on day 1 post-infection
[6] = test system: chloroquine-resistant K1 strain of P. falciparum; experiment: In vitro antimalarial semiautomated microdilution assay ([3H]-hypoxanthine incorporation), K1 strain; format: cell-based, Plasmodium falciparum; conditions: Plasmodium falciparum, K1, 72 h, read-out: IC50 (ng/ml) K1, chloroquine-resistant K1 strain, 72 h incubation
Method in brief: as §1

[7] = 49-day-old adults, total worm reduction rate
[8] = percentage of dead worm in the liver

Row | SMILES | % reduction of schistosomule growth at day 21 after per os application of 200 mg/kg, FWR (%) [2] | % reduction of schistosomule growth at day 21 after per os application of 200 mg/kg, TWR (%) [2] | % reduction of adult worms growth at day 49 after per os application of 400 mg/kg, TWR (%) [3, 7] | Adult worms day 49, per os 400 mg/kg, DEAD WORM (%) [3, 8] | further results
1 | C[C@H]1[C@@H](OCc2ccc(C(=O)O)cc2)O[C@@H]2O[C@@]3(C)CC[C@H]4[C@H](C)CC[C@@H]1[C@@]24OO3 [Artelinate, artelinate, reference compound] |  |  |  |  | ED50 [1]: 4.8 mg/kg; ED90 [1]: 10 mg/kg; ED99 [1]: 18 mg/kg
2 | CC(C)(C)C1CCC2(CC1)OOC1(O2)C2CC3CC(C2)CC1C3 (stereo not drawn) [OZ18] | 9% | 12% | 0/0% | 0/0% | 
3 | C1CCCCCC2(CCCCC1)OOC1(O2)C2CC3CC(C2)CC1C3 (stereo not drawn) [OZ20] | 0% | 0% | 0/0% | 0/0% | 
4 | O=C1CCC2(CC1)OOC1(CCCCCCCCCCC1)O2 [OZ21] | 0% | 0% | 0/0% | 0/0% | 
5 | CCOC(=O)N1CCC2(CC1)OOC1(O2)C2CC3CC(C2)CC1C3 (stereo not drawn) [OZ23] | 84% | 90% | 0% | 4% | 
6 | O=C(c1ccccc1)N1CCC2(CC1)OOC1(O2)C2CC3CC(C2)CC1C3 (stereo not drawn) [OZ24] | 61% | 65% | 21% | 0% | 
7 | CCCC1CCC2(CC1)OOC1(O2)C2CC3CC(C2)CC1C3 (stereo not drawn) [OZ25] | 84% | 86% | 46% | 34% | 
8 | O=[N+]([O-])c1ccc(NN=C2CCC3(CC2)OOC2(O3)C3CC4CC(C3)CC2C4)c([N+](=O)[O-])c1 (stereo not drawn) [OZ29] | 20% | 28% | 0/0% | 0/0% | 
9 | c1ccc2c(c1)COC1(CCC3(CC1)OOC1(O3)C3CC4CC(C3)CC1C4)OC2 (stereo not drawn) [OZ31] | 63% | 60% | 4/4% | 4/4% | 
10 | OC1CCC2(CC1)OOC1(O2)C2CC3CC(C2)CC1C3 (stereo not drawn) [OZ32] | 70% | 73% | 27% | 28% | 
11 | CC1(C)COC2(CCC3(CC2)OOC2(CC(C)(C)CC(C)(C)C2)O3)OC1 [OZ36] | 12% | 16% | 0/0% | 0/0% | 
12 | O=C(O)C1CCC2(CC1)OOC1(O2)C2CC3CC(C2)CC1C3 (stereo not drawn) [OZ71] | 85% | 91% | 0% |  | Adult worms day 49, per os 400 mg/kg, DEAD WORM (%) ([3]; percentage of dead worm in the liver, listed as OZ 71): 16%
13 | C1CC2(CCN1)OOC1(O2)C2CC3CC(C2)CC1C3.Cl (stereo not drawn) [OZ80] | 75% | 79% |  |  | % reduction of adult worms growth at day 49 after per os application of 200 mg/kg, TWR (%) ([3]; single 200 mg/kg per os, 49-day-old adults, total worm reduction rate): 0%; Adult worms day 49, per os 200 mg/kg, DEAD WORM (%) ([3]; single 200 mg/kg per os, percentage of dead worm in the liver): 3%
14 | OCCC1CCC2(CC1)OOC1(O2)C2CC3CC(C2)CC1C3 (stereo not drawn) [OZ89] | 81% | 86% | 0% | 17% | 
15 | CC(C)(O)[C@H]1CC[C@]2(CC1)OOC1(O2)C2CC3CC(C2)CC1C3 (stereo partly drawn) [OZ108] | 28% | 30% | 28% | 0% | IC50 [4]: 29 ng/mL (≈ 0.0899 µM); Survival (days) 10 mg/kg po [5]: 5.0 days; Activity (%) 10 mg/kg po [5]: 0/0/0%; Survival (days) 10 mg/kg SSV po [5]: 5.0 days; Activity (%) 10 mg/kg SSV po [5]: 0/0/0%; Survival (days) 10 mg/kg sc [5]: 5.7 days; Activity (%) 10 mg/kg sc [5]: 0/0/0%; IC50 [6]: 68 ng/mL (≈ 0.211 µM)
16 | COCC(=O)N1CCC2(CC1)OOC1(O2)C2CC3CC(C2)CC1C3 (stereo not drawn) [OZ113, Adamantane-2-spiro-3′-8′-methoxyacetyl-1′,2′,4′-trioxa-8′-azaspiro[4.5]decane] |  |  |  |  | IC50 [4]: 0.2 ng/mL (≈ 0.000593 µM); Survival (days) 10 mg/kg po [5]: 7.3 days; Activity (%) 10 mg/kg po [5]: 92%; Survival (days) 10 mg/kg SSV po [5]: 8.0 days; Activity (%) 10 mg/kg SSV po [5]: 96%; Survival (days) 10 mg/kg sc [5]: 7.3 days; Activity (%) 10 mg/kg sc [5]: 89%; IC50 [6]: 0.95 ng/mL (≈ 0.00282 µM); ED50 ([1]; Plasmodium berghei, po): 3.6 mg/kg; ED90 [1]: 9.0 mg/kg; ED99 [1]: 19 mg/kg
17 | NC[C@H]1CC[C@]2(CC1)OOC1(O2)C2CC3CC(C2)CC1C3 (stereo partly drawn) [OZ181] |  |  |  |  | Survival (days) 10 mg/kg po ([5]; 10 mg/kg): 9.0 days; Activity (%) 10 mg/kg po ([5]; 10 mg/kg): 99.98%; Survival (days) 10 mg/kg SSV po ([5]; 10 mg/kg): 10.0 days; Activity (%) 10 mg/kg SSV po ([5]; 10 mg/kg): 99.91%; Survival (days) 10 mg/kg sc ([5]; 10 mg/kg): 11.0 days; Activity (%) 10 mg/kg sc ([5]; 10 mg/kg): 100%; ED50 ([1]; Plasmodium berghei, po): 0.63 mg/kg; ED90 [1]: 1.8 mg/kg; ED99 [1]: 4.0 mg/kg
